Results from patent US7745647B2, “Diterpenes from the fruiting body of Antrodia camphorata and pharmaceutical compositions thereof” (Kang Jian Biotech Corp, Ltd., priority 2006, dated 2010).

System: primary cultures of neonatal cortical neurons exposed to 5 μM Aβ25-35
Test: Protection of cortical neurons against Aβ25-35-induced cell death (MTT reduction analysis)
Assay type: cell-based, rat
Settings: for protected neurons from Aβ damage by: 5 μM Aβ; for cell death (%): then 5 μM Aβ25-35 for 40 h, MTT, mean ± S.D., three experiments
Experimental: In this study, primary cultures of neonatal cortical neurons from the cerebral cortex of Harlan Sprague-Dawley rat pups at postnatal day were used as target cells. Primary cultures of neonatal cortical neurons were prepared from the cerebral cortex of Harlan Sprague-Dawley rat pups at postnatal day 1. Briefly, each pup was decapitated and the cortex was digested in 0.5 mg/mL papain at 37° C. for 15 min. The tissue was dissociated in Hibernate A medium (containing B27 supplement) by aspirating trituration to separate cells. Cells were plated (at the density of 5×10^4 cells/cm^2) onto poly-D-lysine-coated dishes and maintained in Neurobasal medium containing B27 supplement, 10 units/mL penicillin, […], and 0.5 mg/mL glutamine (5% CO2/9% O2) for 3 days. Cells were then exposed to cytosine-β-D-arabinofuranoside (5 μM) for 1 day to inhibit proliferation of non-neuronal cells. The cells were used for the experiment on the fifth day.
The effects of isolated pure compounds on Aβ25-35-treated cell apoptosis were determined by a MTT method for evaluating neuroprotective activity. The mitochondrial dehydrogenase activity was assayed by reduction cleavage of the tetrazolium salt MTT (3-[4,5-dimethylthiazol-2-yl]-2,5-diphenyltetrazolium bromide), to yield a purple dye with absorbance read at about 570 nm. Results are expressed as percentage of control absorbance. Cortical neurons prepared as described above were incubated with vehicle (0.1% DMSO) or various concentrations of the compounds for 2 h then exposed to 5 μM Aβ for 40 h. The cell viability was assessed by MTT reduction analysis. Cells were incubated with minimum essential medium containing 0.5 mg/mL MTT for 1 h. The medium was aspirated, and the formazan particle was dissolved with DMSO. The absorbance at 600 nm was measured using an enzyme-linked immunosorbent assay reader. Results are expressed as means±S.D. and were analyzed by ANOVA with post hoc multiple comparison with a Bonferroni test.

Row | Molecule | protected neurons from Aβ damage by (at concentration of 10 μM) | cell death (%) (compound 1 μM for 2 h) | cell death (%) (compound 5 μM for 2 h) | cell death (%) (compound 10 μM for 2 h) | cell death (%) (compound 20 μM for 2 h) | protected neurons from Aβ damage by (at concentration of 20 μM) | protected neurons from Aβ damage by (at concentration of 5 μM)
1 | C=C1CC[C@@H]2[C@](C)(CC[C@H](O)[C@]2(C)CO)[C@H]1/C=C/C1CCOC1=O (stereo partly drawn) [Compound 3, 13-epi-3β,19-dihydroxylabda-8(17), 11E-dien-16,15-olide] | 36.7% | 45.1 ± 3.5% | 39.6 ± 3.4% | 36.7 ± 8.7% | 29.3 ± 10.6 % | – | –
2 | C=C1CC[C@H]2[C@@](C)(CO)CCC[C@]2(C)[C@H]1CCC1=CCOC1=O [Compound 4, 19-hydroxylabda-8(17),13-dien-16,15-olide] | 28.9% | 41.2 ± 3.4% | 34.8 ± 3.2% | 28.9 ± 8.1 % | 32.6 ± 7.2 % | – | –
3 | Ac-DEVD-CHO [reference compound] | – | 35.8 ± 3.5% | 30.2 ± 5.5 % | 24.5 ± 4.6 % | 23.1 ± 1.6 % | – | –
4 | C=C1CCC2C(C)(CO)C(O)CCC2(C)C1C=CC1=CCOC1=O (centres unmarked) [Compound 5, 14-deoxy-11,12-didehydroandrographolide] | – | 40.7 ± 3.3% | 35.7 ± 1.9% | 30.8 ± 5.7 % | 29.5 ± 5.0 % | 29.5% | –
5 | C=C1CC[C@@H]2[C@](C)(CC[C@H](O)[C@]2(C)CO)[C@H]1/C=C/[C@@H]1CCOC1=O [Compound 2, 3β,19-dihydroxylabda-8(17), 11E-dien-16,15-olide] | 29.5% | 43.8 ± 9.5% | 34.9 ± 2.6% | 29.5 ± 6.4 % | 26.3 ± 9.4 % | – | –
6 | C=C1CCC2[C@@](C)(CO)CCC[C@]2(C)[C@H]1CCC1CCOC1=O (some centres unmarked) [Compound 1, 19-hydroxylabda-8(17)-en-16,15-olide] | – | 34.4 ± 3.4% | 25.3 ± 5.7 % | 28.1 ± 5.7 % | 30.8 ± 5.0 % | – | 25.3%
